Earlier results, collected in US8883207B2, “Controlled release carvedilol formulation” (TSH Biopharm Corporation Ltd., priority 2009, dated 2014).
Read-outs that look alike come from different tables or passages of the source.

Columns and labels:
[1] = not given; remark: listed apart in the source

- solubility in gastric fluid (gastric fluid (simulated, TS, pH 1.1)): low solubility
- solubility in intestinal fluid (intestinal fluid (simulated, TS without pancreatin, pH 7.5)): low solubility
- solubility in water (water): low solubility
- relative absorption ([1]; colon): 7%
- relative absorption ([1]; ileum): 28%
- relative absorption ([1]; jejunum): 56%
SMILES: COc1ccccc1OCCNCC(O)COc1cccc2[nH]c3ccccc3c12 (racemic) [carvedilol, ((±)1-(carbazol-4-yloxy-3-[[2-(o-methoxyphenoxy)ethyl]-amino]-2-propanol)]
